The results in this text go back to ChEMBL document CHEMBL1909046, “DrugMatrix in vitro pharmacology data”.

The target of data set [1] is Mitogen-activated protein kinase 1 (Homo sapiens, UniProt P28482). The data set is described as follows: DRUGMATRIX: Protein Serine/Threonine Kinase, ERK2 enzyme inhibition (substrate: Myelin Basic Protein). The following applies: Not Active = under 50% inhibition at 10 µM. On the set-up: species or system Escherichia coli.
For data set [2], the target named is T1, C-X-C chemokine receptor type 2 (Homo sapiens, UniProt P25025). Also: in other assays of this panel Not Active means under 50% inhibition at 10 µM.
T1 sequence (P25025 whole entry): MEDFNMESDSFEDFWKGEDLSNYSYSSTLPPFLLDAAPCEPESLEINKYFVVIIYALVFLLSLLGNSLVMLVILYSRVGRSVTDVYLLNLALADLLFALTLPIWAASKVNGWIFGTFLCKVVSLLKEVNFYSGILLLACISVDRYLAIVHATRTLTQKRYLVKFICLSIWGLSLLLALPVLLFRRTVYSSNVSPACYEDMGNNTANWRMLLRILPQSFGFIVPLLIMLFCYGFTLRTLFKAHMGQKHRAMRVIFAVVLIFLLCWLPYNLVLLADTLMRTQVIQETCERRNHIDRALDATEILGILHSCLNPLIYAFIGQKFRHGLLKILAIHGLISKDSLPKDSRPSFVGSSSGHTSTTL
In kind it is cell membranes, Membrane. As to conditions: cho-k1.

The target of data set [3] is Mitogen-activated protein kinase 14 (Homo sapiens, UniProt Q16539). On the set-up: species or system Escherichia coli.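 Also: inhibition of p38alpha enzyme activity in a biochemical kinase assay, with myelin basic protein serving as substrate; in other assays of this panel Not Active means under 50% inhibition at 10 µM.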
Chain of Mitogen-activated protein kinase 14 (Q16539 whole entry): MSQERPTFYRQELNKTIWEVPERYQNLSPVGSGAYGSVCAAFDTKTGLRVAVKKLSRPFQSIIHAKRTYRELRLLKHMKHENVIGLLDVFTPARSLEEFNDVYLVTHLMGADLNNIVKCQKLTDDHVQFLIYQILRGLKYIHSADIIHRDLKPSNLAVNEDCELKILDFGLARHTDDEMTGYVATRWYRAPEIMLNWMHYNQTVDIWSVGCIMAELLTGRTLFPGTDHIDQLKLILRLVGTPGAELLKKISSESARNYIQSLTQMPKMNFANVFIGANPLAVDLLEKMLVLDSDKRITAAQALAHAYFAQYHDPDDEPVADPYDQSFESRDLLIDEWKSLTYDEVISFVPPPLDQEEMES
In data set [4] the target is Beta-2 adrenergic receptor (Homo sapiens, UniProt P07550). The data set can be described thus: DRUGMATRIX: Adrenergic beta2 radioligand binding (ligand: [3H] CGP-12177). In kind it is cell membranes, CHO, Membrane. As to conditions: cho; Not Active = under 50% inhibition at 10 µM.
For the next data set, the target named is T2, Cytochrome P450 2A6 (Homo sapiens, UniProt P11509). Also: in other assays of this panel Not Active means under 50% inhibition at 10 µM.
T2 sequence (P11509 whole entry): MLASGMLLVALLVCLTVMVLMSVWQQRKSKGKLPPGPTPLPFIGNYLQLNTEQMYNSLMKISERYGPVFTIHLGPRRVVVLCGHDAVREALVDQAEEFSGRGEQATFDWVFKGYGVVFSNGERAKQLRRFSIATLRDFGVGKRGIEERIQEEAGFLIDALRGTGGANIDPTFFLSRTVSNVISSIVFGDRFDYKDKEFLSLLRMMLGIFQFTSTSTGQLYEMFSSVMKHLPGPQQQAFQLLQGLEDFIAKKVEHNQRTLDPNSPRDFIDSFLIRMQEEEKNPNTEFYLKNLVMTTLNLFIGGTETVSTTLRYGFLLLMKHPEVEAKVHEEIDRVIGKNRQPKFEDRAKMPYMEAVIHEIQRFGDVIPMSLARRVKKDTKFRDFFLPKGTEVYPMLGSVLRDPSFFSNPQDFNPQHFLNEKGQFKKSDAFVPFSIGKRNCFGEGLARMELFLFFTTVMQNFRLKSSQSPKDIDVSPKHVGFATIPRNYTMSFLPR
As to conditions: bti-tn-5b1-4.

In data set [5] the target is Protein kinase C alpha type (Homo sapiens, UniProt P17252). In kind it is cell-based. The following applies: sf9.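 Also: inhibition of PKCalpha kinase activity measured in an enzyme assay with histone as the phosphorylation substrate; in other assays of this panel Not Active means under 50% inhibition at 10 µM.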
The target in the next data set is Vasopressin V1a receptor (Homo sapiens, UniProt P37288). The data set is classed as cell membranes, Membrane. As to conditions: hek293. Also: in other assays of this panel Not Active means under 50% inhibition at 10 µM.
Chain of Vasopressin V1a receptor (P37288 whole entry): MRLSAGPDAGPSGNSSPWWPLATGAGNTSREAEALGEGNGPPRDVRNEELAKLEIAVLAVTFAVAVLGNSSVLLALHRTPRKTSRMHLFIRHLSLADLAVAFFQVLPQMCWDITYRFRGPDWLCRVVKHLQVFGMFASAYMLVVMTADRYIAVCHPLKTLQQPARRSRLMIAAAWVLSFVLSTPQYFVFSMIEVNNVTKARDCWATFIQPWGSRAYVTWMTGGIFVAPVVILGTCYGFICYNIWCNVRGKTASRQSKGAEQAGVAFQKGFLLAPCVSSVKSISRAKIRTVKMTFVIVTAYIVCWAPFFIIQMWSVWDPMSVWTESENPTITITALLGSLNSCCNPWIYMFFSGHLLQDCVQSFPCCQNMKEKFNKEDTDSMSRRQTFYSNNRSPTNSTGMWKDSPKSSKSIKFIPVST
For data set [6], the target named is T3, Muscarinic acetylcholine receptor M4 (Homo sapiens, UniProt P08173). Also: in other assays of this panel Not Active means under 50% inhibition at 10 µM.
T3 sequence (P08173 whole entry): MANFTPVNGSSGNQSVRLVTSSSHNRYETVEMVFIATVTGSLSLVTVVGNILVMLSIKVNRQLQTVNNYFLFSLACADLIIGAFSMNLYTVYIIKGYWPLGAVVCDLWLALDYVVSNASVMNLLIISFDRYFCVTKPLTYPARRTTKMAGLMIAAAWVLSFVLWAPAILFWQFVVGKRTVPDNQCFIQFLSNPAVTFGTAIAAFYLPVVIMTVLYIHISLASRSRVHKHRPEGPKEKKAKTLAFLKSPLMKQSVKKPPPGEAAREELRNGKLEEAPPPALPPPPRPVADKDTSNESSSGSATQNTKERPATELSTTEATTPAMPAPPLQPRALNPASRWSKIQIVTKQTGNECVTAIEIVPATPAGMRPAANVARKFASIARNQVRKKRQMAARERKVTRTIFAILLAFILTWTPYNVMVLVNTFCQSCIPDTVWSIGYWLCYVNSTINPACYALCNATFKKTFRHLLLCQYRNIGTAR
In kind it is cell membranes, CHO-K1, Membrane.

Chain of Mitogen-activated protein kinase 1 (P28482 whole entry): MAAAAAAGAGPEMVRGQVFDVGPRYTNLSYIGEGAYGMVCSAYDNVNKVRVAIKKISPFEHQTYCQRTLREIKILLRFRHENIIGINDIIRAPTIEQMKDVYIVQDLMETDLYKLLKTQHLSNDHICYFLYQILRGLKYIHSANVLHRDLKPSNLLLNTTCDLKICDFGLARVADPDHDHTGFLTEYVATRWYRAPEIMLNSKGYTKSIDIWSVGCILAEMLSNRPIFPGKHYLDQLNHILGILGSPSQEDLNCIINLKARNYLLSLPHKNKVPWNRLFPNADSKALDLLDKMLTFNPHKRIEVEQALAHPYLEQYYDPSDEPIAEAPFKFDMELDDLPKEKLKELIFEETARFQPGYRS

Consider `O=C1C[C@@H]2OCC=C3CN4CC[C@]56c7ccccc7N1[C@H]5[C@H]2[C@H]3C[C@H]46` [STRYCHNINE], for which the IC50 result (in data set [1]; in data set [2]; in data set [3]; in data set [4]; against Cytochrome P450 2A6; in data set [5]) was “Not Active” throughout. The IC50 entry (at Vasopressin V1a receptor; in data set [6] (cho-k1)) was “Not Active” in each case. The Ki entry on Cytochrome P450 2A6 was “Not Active”.

On to `C[N+](C)(C)CCOC(=O)CCC(=O)OCC[N+](C)(C)C.[Cl-].[Cl-]` [SUCCINYLCHOLINE CHLORIDE], for which the IC50 result (in data set [1]; in data set [2]; in data set [3]; in data set [4]; at Cytochrome P450 2A6; in data set [5]) was “Not Active” each time. Further, the IC50 result (against Vasopressin V1a receptor; in data set [6] (cho-k1)) was “Not Active” each time. For the same compound, at Cytochrome P450 2A6, the Ki entry is reported as “Not Active”.

Regarding `Nc1ccc(S(=O)(=O)NC(=O)c2ccccc2)cc1` [SULFABENZAMIDE], the IC50 result (in data set [1]; in data set [2]; in data set [3]; in data set [4]; at Cytochrome P450 2A6; in data set [5]) was “Not Active” each time. Besides, the IC50 entry (against Vasopressin V1a receptor; in data set [6] (cho-k1)) was “Not Active” throughout. In addition, the Ki entry at Cytochrome P450 2A6 is “Not Active”.

With `CCCCCCCCNC(C)C(O)c1ccc(SC(C)C)cc1` (centres undefined) [SULOCTIDIL], the IC50 entry (in data set [1]; in data set [2]; in data set [3]; in data set [4]; against Cytochrome P450 2A6; in data set [5]) was “Not Active” in each case. Besides, the IC50 entry was “Not Active” on Vasopressin V1a receptor and 4.56 µM in data set [6] (read-out: IC50). Further, the Ki entry on Cytochrome P450 2A6 was “Not Active”; in data set [6] (read-out: Ki), 0.636 µM.

On to `O=c1[nH]c(=O)n(C2CCCO2)cc1F` (centres undefined) [TEGAFUR], for which the IC50 result (in data set [1]; in data set [2]; in data set [3]; in data set [4]; against Cytochrome P450 2A6; in data set [5]) was “Not Active” throughout. Further, the IC50 entry (against Vasopressin V1a receptor; in data set [6] (cho-k1)) was “Not Active” in each case. Further, the Ki result on Cytochrome P450 2A6 is given as “Not Active”.

As for `CC(=N)S` [THIOACETAMIDE], the half-inhibitory concentration (IC50) entry (in data set [1]; in data set [2]; in data set [3]; in data set [4]; against Cytochrome P450 2A6; in data set [5]) was “Not Active” in each case. Besides, the IC50 entry (on Vasopressin V1a receptor; in data set [6] (cho-k1)) was “Not Active” in each case. Moreover, the Ki result at Cytochrome P450 2A6 is “Not Active”.

`Cc1ccc(C(=O)c2ccc(CC(=O)O)n2C)cc1` [TOLMETIN]: the IC50 result (in data set [1]; in data set [2]; in data set [3]; in data set [4]; against Cytochrome P450 2A6; in data set [5]) was “Not Active” throughout. For the same compound, the IC50 result (on Vasopressin V1a receptor; in data set [6] (cho-k1)) was “Not Active” throughout. Also, the Ki entry on Cytochrome P450 2A6 was “Not Active”.

As to `CC(=O)OCC(COC(C)=O)OC(C)=O` [TRIACETIN], the IC50 entry (in data set [1]; in data set [2]; in data set [3]; in data set [4]; at Cytochrome P450 2A6; in data set [5]) was “Not Active” throughout. Besides, the IC50 entry (at Vasopressin V1a receptor; in data set [6] (cho-k1)) was “Not Active” in each case. In addition, the Ki entry on Cytochrome P450 2A6 is “Not Active”.

Take `CN1CCN(CCCN2c3ccccc3Sc3ccc(C(F)(F)F)cc32)CC1` [TRIFLUOPERAZINE]: the concentration for half-maximal inhibition (IC50) entry (in data set [1]; in data set [2]; in data set [3]; in data set [4]; on Cytochrome P450 2A6; in data set [5]) was “Not Active” throughout. Besides, the half-maximal inhibitory concentration (IC50) result (at Vasopressin V1a receptor; in data set [6] (cho-k1)) was “Not Active” in each case. At Cytochrome P450 2A6, the Ki result is “Not Active”.

Consider TRANSPLATIN, for which the IC50 result (in data set [1]; in data set [2]; in data set [3]; in data set [4]; against Cytochrome P450 2A6; in data set [5]) was “Not Active” in each case. Also, the IC50 result (against Vasopressin V1a receptor; in data set [6] (cho-k1)) was “Not Active” throughout. The Ki entry (in data set [1]; in data set [2]; in data set [3]; in data set [4]; at Cytochrome P450 2A6; in data set [5]) was “Not Active” in each case. In addition, the Ki result (at Vasopressin V1a receptor; in data set [6] (cho-k1)) was “Not Active” throughout.

In the case of ZIRCONIUM(IV) CHLORIDE, the IC50 entry (in data set [1]; in data set [2]; in data set [3]; in data set [4]; at Cytochrome P450 2A6; in data set [5]) was “Not Active” throughout. For the same compound, the IC50 result (against Vasopressin V1a receptor; in data set [6] (cho-k1)) was “Not Active” each time. For the same compound, the Ki entry (in data set [1]; in data set [2]; in data set [3]; in data set [4]; on Cytochrome P450 2A6; in data set [5]) was “Not Active” throughout. In addition, the Ki result (at Vasopressin V1a receptor; in data set [6] (cho-k1)) was “Not Active” throughout.

The term IC50 denotes the concentration needed to halve the response being measured. By Ki is commonly meant the dissociation constant of the complex between target and ligand, obtained from inhibition or displacement.
